According to patent publication US9079905B2, “Compounds for the treatment of CNS disorders” (Boehringer Ingelheim International GmbH, priority 2008, dated 2015):

What was measured:
human PDE9A2 = target: T1, human PDE9A2 (Homo sapiens, UniProt O76083); test: PDE9A2 enzymatic activity assay (scintillation proximity assay); assay type: biochemical; details: for IC50: specific IC50 value is within the given range
T1 construct: made in house; host or cells: Sf9 insect cells (infected; crude lysate used as enzyme source)
Procedure: The PDE9A2 enzymatic activity assay was run as scintillation proximity assay (SPA), in general according to the protocol of the manufacturer (Amersham Biosciences, product number: TRKQ 7100).
As enzyme source, lysate (PBS with 1% Triton X-100 supplemented with protease inhibitors, cell debris removed by centrifugation at 13.000 rpm for 30 min) of SF 9 cell expressing the human PDE9A2 was used. The total protein amount included in the assay varied upon infection and production efficacy of the SF9 cells and lay in the range of 0.1-100 ng.
In general, the assay conditions were as follows: • total assay volume: 40 microliter • protein amount: 0.1-50 ng • substrate concentration (cGMP): 20 nanomolar; ˜1 mCi/1 • incubation time: 60 min at room temperature • final DMSO concentration: 0.2-1
The assays were run in 384-well format. The test reagents as well as the enzyme and the substrate were diluted in assay buffer. The assay buffer contained 50 mM Tris, 8.3 mM MgCl2, 1.7 mM EGTA, 0.1% BSA, 0.05% Tween 20; the pH of assay buffer was adjusted to 7.5. The reaction was stopped by applying a PDE9 specific inhibitor (e.g. compounds according to WO04099210 or WO04099211) in excess.
The activity of the positive control (minus the negative control=background) is set to 100% and activity in the presence of test compound is expressed relative to these 100%. Within this setting, an inhibition above 100% might be possible due to the nature of the variation of the positive control within the assay. In the following inhibition of PDE 9A2 is presented for a concentration at 10 μM, if not indicated otherwise.
IC50 can be calculated with GraphPadPrism or other suited software setting the positive control as 100 and the negative control as 0. For calculation of IC50 dilutions of the test compounds (substrates) are to be selected and tested following the aforementioned protocol.

human PDE9A = human PDE9A (Homo sapiens, UniProt O76083); details: concentrations of up to 100 micromolar (μM); cited from earlier work
Murine PDE9A = target: T2, Murine PDE9A (Mus musculus, UniProt O70628); details: concentrations below 200 micromolar; cited from earlier work
T2 sequence (O70628 1-534): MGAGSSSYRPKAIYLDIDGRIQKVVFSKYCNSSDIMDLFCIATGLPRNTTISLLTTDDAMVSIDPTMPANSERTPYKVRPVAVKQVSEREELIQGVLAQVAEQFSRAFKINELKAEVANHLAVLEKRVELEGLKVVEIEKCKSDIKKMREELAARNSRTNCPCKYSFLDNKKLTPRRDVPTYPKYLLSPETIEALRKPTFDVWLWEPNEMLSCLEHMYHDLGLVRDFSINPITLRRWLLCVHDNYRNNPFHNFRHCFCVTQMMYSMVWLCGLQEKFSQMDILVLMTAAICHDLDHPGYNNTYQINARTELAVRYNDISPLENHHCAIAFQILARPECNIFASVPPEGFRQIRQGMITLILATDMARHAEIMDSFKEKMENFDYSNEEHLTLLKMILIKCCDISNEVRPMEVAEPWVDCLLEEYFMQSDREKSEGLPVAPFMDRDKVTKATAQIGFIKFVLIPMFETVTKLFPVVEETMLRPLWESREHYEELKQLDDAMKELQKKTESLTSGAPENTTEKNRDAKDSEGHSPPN

[1] = read-out: % Inhibition of PDE 9A2

Chain of human PDE9A (O76083 whole entry): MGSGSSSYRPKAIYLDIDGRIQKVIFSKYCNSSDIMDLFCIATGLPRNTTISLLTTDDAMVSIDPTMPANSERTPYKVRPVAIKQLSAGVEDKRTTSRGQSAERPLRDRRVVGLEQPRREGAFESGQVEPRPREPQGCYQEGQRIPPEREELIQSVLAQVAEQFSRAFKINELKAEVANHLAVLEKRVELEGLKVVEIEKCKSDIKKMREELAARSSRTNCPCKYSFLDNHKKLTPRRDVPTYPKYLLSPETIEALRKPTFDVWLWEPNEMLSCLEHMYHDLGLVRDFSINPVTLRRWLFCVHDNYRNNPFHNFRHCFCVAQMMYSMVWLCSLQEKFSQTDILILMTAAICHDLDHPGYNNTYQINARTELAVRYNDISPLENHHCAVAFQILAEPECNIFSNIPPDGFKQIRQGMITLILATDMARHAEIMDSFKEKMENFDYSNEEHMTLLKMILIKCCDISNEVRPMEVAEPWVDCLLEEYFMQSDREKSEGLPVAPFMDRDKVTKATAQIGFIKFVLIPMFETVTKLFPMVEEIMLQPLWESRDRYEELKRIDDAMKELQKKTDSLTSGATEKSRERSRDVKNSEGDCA
T1 sequence (O76083 1-533 isoform O76083-2): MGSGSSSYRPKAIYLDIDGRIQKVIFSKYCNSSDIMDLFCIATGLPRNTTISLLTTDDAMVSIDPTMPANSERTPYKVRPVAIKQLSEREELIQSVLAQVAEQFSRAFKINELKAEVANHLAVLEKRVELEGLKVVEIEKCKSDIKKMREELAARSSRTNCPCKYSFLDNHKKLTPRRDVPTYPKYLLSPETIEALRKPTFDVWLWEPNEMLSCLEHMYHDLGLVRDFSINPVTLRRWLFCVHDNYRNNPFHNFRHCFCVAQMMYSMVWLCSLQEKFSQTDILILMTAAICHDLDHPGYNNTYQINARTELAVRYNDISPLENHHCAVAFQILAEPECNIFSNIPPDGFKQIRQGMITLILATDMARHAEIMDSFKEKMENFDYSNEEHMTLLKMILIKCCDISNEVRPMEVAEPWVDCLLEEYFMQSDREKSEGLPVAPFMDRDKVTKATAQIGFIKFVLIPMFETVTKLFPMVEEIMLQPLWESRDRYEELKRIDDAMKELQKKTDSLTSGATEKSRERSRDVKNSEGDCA

| SMILES | inhibition at 10 µM (human PDE9A2; [1]) [%] | IC50 (human PDE9A2) [nM] | also measured |
| --- | --- | --- | --- |
| O=c1[nH]c(Cc2ccccc2-c2ccnnc2)nc2c1cnn2C1CCC(F)(F)CC1 [Example 98] | 100 | 1 to 100 | – |
| Cc1nc(-c2ccccc2Cc2nc3c(cnn3C3CCC(F)(F)CC3)c(=O)[nH]2)n[nH]1 [Example 99] | 100 | 1 to 100 | – |
| COc1cccnc1Cc1nc2c(cnn2C2CCC(F)(F)CC2)c(=O)[nH]1 [Example 100] | 95 | 101 to 1500 | – |
| O=c1[nH]c(Cc2ccccc2-n2cccc2)nc2c1cnn2C1CCC(F)(F)CC1 [Example 104] | 97 | 1 to 100 | – |
| Cc1ccn(-c2ccccc2Cc2nc3c(cnn3C3CCC(F)(F)CC3)c(=O)[nH]2)n1 [Example 106] | 83 | 1 to 100 | – |
| O=c1[nH]c(Cc2ccccc2-n2cnnc2)nc2c1cnn2C1CCC(F)(F)CC1 [Example 108] | 99 | 1 to 100 | – |
| CC(C)Cn1c(=O)n(C)c(=O)c2[nH]cnc21 [IBMX] | – | – | inhibition on the isolated enzyme (human PDE9A): no inhibition; inhibition of murine PDE9A (Murine PDE9A): not inhibited |
| CC(=O)Nc1ccc(-c2c[nH]c(=O)cn2)cc1 [SKF94120] | – | – | inhibition on the isolated enzyme (human PDE9A): no inhibition |
| OCCN(CCO)c1nc(N2CCCCC2)c2nc(N(CCO)CCO)nc(N3CCCCC3)c2n1 [dipyridamole] | – | – | inhibition on the isolated enzyme (human PDE9A): no inhibition |
| COc1ccc(C2CNC(=O)C2)cc1OC1CCCC1 (centres unmarked) [rolipram] | – | – | inhibition on the isolated enzyme (human PDE9A): no inhibition |
| CCOC(=O)C1=C[C@]2(CC)CCCN3CCc4c(n1c1ccccc41)[C@@H]32 [vinpocetine] | – | – | inhibition on the isolated enzyme (human PDE9A): no inhibition |

Second part, led by results:

| inhibition at 10 µM (human PDE9A2; [1]) [%] | IC50 (human PDE9A2) [nM] | SMILES | also measured |
| --- | --- | --- | --- |
| – | 1 to 100 | O=c1[nH]c(Cc2ccccc2C2CC2)nc2c1cnn2C1CCC(F)(F)CC1 [Example 103] | inhibition at 3.3 µM (human PDE9A2; at 3.3 μM, read-out: % Inhibition of PDE 9A2): 96% |
| 97 | 101 to 1500 | O=c1[nH]c(Cc2ncccc2C2CC2)nc2c1cnn2C1CCC(F)(F)CC1 [Example 105] | – |
| 100 | 1 to 100 | Nc1ccccc1Cc1nc2c(cnn2C2CCC(F)(F)CC2)c(=O)[nH]1 [Example 107] | – |
| 93 | – | O=c1[nH]c(Cc2ccccn2)nc2c1cnn2C1CCC(F)CC1 (centres unmarked) [Example 109] | – |
| 95 | – | Cc1cccnc1Cc1nc2c(cnn2C2CCC(F)CC2)c(=O)[nH]1 (centres unmarked) [Example 110] | – |
| 74 | 1 to 100 | O=c1[nH]c(CC2CCC2)nc2c1cnn2C1CCC(F)CC1 (centres unmarked) [Example 111] | – |
| 97 | 1 to 100 | CC(C)Cc1nc2c(cnn2C2CCC(F)CC2)c(=O)[nH]1 (centres unmarked) [Example 112] | – |
| 98 | 1 to 100 | O=c1[nH]c(CC2CCCC2)nc2c1cnn2C1CCC(F)CC1 (centres unmarked) [Example 113] | – |
